Patent US20130064899A1, “SYNERGISTIC BIOCIDE COMPOSITION CONTAINING AT LEAST THREE BIOCIDE COMPONENTS” (THOR GMBH, priority 2010, published 2013)
Marks after values point to notes of the source that are not given here.

Tests used:
[1] = tested on: Candida albicans (DSM 1386); assay: Minimum inhibitory concentration and synergy index in Sabouraud maltose broth, Candida albicans; assay type: cell-based; conditions: 72 hours at 25° C.
Method: (§1) A test was made of the synergism of a combination of BIT, zinc pyrithione or sodium pyrithione, and silver. The test organisms used were the yeasts Candida albicans (DSM 1386) and Candida lipolytica (DSM 3286). For the test, mixtures with different compositions of BIT, zinc pyrithione or sodium pyrithione, and silver were prepared and were tested for their activity on Candida albicans and Candida lipolytica.
(§2) The individual actives or actives mixtures were mixed in serial concentration series with nutrient broth (Sabouraud maltose broth) and inoculated with the respective test organisms. The cell density in the overall batch was in each case 10^6 microbes per ml.
(§3) The incubation time was 72 hours at 25° C. on a shaker at 120 rpm. This was followed by inspection for growth of Candida albicans and Candida lipolytica.
(§4) This method was used to determine the minimum inhibitory concentrations (MICS) of the combination Ag+BIT and ZnPy or NaPy, with Ag and BIT always being present in a 1:20 ratio. The MIC is the concentration at which there is no longer any hazing of the nutrient solution.
(§5) The synergism which occurred was represented numerically by calculation of the synergy index (SI). The calculation was made according to the common method of F. C. Kull et al., Applied Microbiology, vol. 9 (1961), p. 538. The SI variant was given by the following formula:
Synergy index SI=Qa/QA+Qb/QB […]

[2] = tested on: Candida lipolytica (DSM 3286); assay: Minimum inhibitory concentration and synergy index in Sabouraud maltose broth, Candida lipolytica; assay type: cell-based; conditions: 72 hours at 25° C.; for SI (synergy index = Qa/QA + Qb/QB): below 1 = synergism
Method: as §1, §2, §3, §4, §5
Synergy index SI=Qa/QA+Qb/QB
When this formula is applied to the BIT+pyrithione+silver biocide system tested here, the variables in the formula have the following definition: • Qa=Concentration of Ag+BIT in the Ag+BIT and ZnPy mixture • QA=Concentration of Ag+BIT as sole biocide • Qb=Concentration of ZnPy in the Ag+BIT and ZnPy mixture • QB=Concentration of ZnPy as sole biocide
If the synergy index has a value of more than 1, this means that antagonism is present. If the synergy index adopts a value of 1, this means that the two biocides have an additive effect.

[3] = concentration of ZnPy in the Ag + BIT and ZnPy mixture, *2 = QB, ZnPy as sole biocide

| Molecule | SI (synergy index = Qa/QA + Qb/QB) ([1]; below 1 = synergism) | MIC Qb (ZnPy) [1, 3] | SI (synergy index = Qa/QA + Qb/QB) ([2]; ZnPy series) | MIC Qb (ZnPy) [2, 3] | SI (synergy index = Qa/QA + Qb/QB) ([2]; NaPy series) | MIC Qb (NaPy) ([2]; concentration of NaPy in the Ag + BIT and NaPy mixture, *2 = QB, NaPy as sole biocide) |
| --- | --- | --- | --- | --- | --- | --- |
| zinc pyrithione [ZnPy] | 1.00 | 7.5*^2 ppm | 1.00 | 7.5*^2 ppm | – | – |
| [Na+].[O-][n+]1ccccc1[S-] [NaPy, sodium pyrithione] | – | – | – | – | 1.00 | 30*^2 ppm |
